Data reported in PubChem BioAssay AID256 (DTP/NCI, 2004).
Values joined by “and” are separate entries in the source; they are usually repeats but may differ in a detail not shown here. Identical values can stand only once. Inconclusive results and toxic doses are left out. The calls were made as follows: active = survival T/C of 150% or more; inactive = T/C below 125% in these data.

Test system: CD2F1 mice, L1210 leukemia ip, survival T/C
Test: NCI In Vivo Anticancer Drug Screen. Data for tumor model L1210 Leukemia (intraperitoneal) in CD2F1 (CDF1) mice
Details: endpoint: mean survival time, higher = longer survival
Outline: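 In this screen, transplantable tumors were grown in mice given either the compound or its vehicle. Results were expressed as the treated measurement relative to the control measurement.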

[1] = dose: 75.0 mg/kg/injection, schedule: Q01DX001 (ip), vehicle: saline
[2] = dose: 150.0 mg/kg/injection, schedule: Q01DX001 (ip), vehicle: saline
[3] = dose: 300.0 mg/kg/injection, schedule: Q01DX001 (ip), vehicle: saline
[4] = dose: 100.0 mg/kg/injection, schedule: Q01DX001 (ip), vehicle: saline with Tween-80
[5] = dose: 100.0 mg/kg/injection, schedule: Q01DX009 (ip), vehicle: saline with Tween-80
[6] = dose: 200.0 mg/kg/injection, schedule: Q01DX001 (ip), vehicle: saline with Tween-80
[7] = dose: 400.0 mg/kg/injection, schedule: Q01DX009 (ip), vehicle: saline with Tween-80
[8] = dose: 100.0 mg/kg/injection, schedule: Q04DX003 (ip), vehicle: saline with Tween-80
[9] = dose: 200.0 mg/kg/injection, schedule: Q04DX003 (ip), vehicle: saline with Tween-80
[10] = dose: 400.0 mg/kg/injection, schedule: Q04DX003 (ip), vehicle: saline with Tween-80
[11] = dose: 100.0 mg/kg/injection, schedule: Q04DX003 (ip), vehicle: saline
[12] = dose: 200.0 mg/kg/injection, schedule: Q04DX003 (ip), vehicle: saline
[13] = dose: 400.0 mg/kg/injection, schedule: Q04DX003 (ip), vehicle: saline
[14] = dose: 400.0 mg/kg/injection, schedule: Q01DX001 (ip), vehicle: saline

Measured: T/C

O=[N+]([O-])c1ccc(O)c(CCl)c1
inactive: [1] 102 % of control | [2] 93 % of control | [3] 96 % of control

CC1=CC(=O)c2ccccc2C1=O
inactive: dose: 9.0 mg/kg/injection, schedule: Q01DX009 (ip), vehicle: other 100 % of control | dose: 13.5 mg/kg/injection, schedule: Q01DX009 (ip), vehicle: other 114 % of control | dose: 20.0 mg/kg/injection, schedule: Q01DX001 (ip), vehicle: other 95 % of control | dose: 20.0 mg/kg/injection, schedule: Q01DX009 (ip), vehicle: other 97 % of control | dose: 30.0 mg/kg/injection, schedule: Q01DX009 (ip), vehicle: other 97 % of control | dose: 40.0 mg/kg/injection, schedule: Q01DX001 (ip), vehicle: other 104 % of control | dose: 60.0 mg/kg/injection, schedule: Q01DX001 (ip), vehicle: other 104 % of control | dose: 90.0 mg/kg/injection, schedule: Q01DX001 (ip), vehicle: other 104 % of control

c1csc(CCc2nc3ccccc3o2)c1
inactive: [4] 103 % of control | [5] 93 % of control | [6] 98 % of control | dose: 200.0 mg/kg/injection, schedule: Q01DX009 (ip), vehicle: saline with Tween-80 97 % of control | dose: 400.0 mg/kg/injection, schedule: Q01DX001 (ip), vehicle: saline with Tween-80 112 % of control | [7] 93 % of control

C[C@H](CCC[C@H](C)OS(=O)(=O)c1ccccc1)OS(=O)(=O)c1ccccc1
inactive: dose: 12.5 mg/kg/injection, schedule: Q01DX009 (ip), vehicle: saline with Tween-80 101 % of control and 110 % of control | [7] 114 % of control and 104 % of control

O=P(Cc1ccccc1)(Cc1ccccc1)c1ccccc1
inactive: [1] 95 % of control | [2] 93 % of control | [3] 100 % of control

N=C(N)SSCc1ccco1
inactive: dose: 5.0 mg/kg/injection, schedule: Q04DX002 (ip), vehicle: saline with Tween-80 96 % of control | dose: 10.0 mg/kg/injection, schedule: Q04DX002 (ip), vehicle: saline with Tween-80 103 % of control | dose: 20.0 mg/kg/injection, schedule: Q04DX002 (ip), vehicle: saline with Tween-80 100 % of control

OC1CCCCCCCCC1Cl (stereo unspecified)
inactive: [5] 88 % of control | [8] 94 % of control | [9] 93 % of control | [10] 96 % of control

CN(C)N=Nc1ccc(Cl)cc1C(N)=O
inactive: dose: 18.8 mg/kg/injection, schedule: Q01DX009 (ip), vehicle: Klucel (hydroxypropylcellulose) (HPC) 93 % of control and 98 % of control | dose: 37.5 mg/kg/injection, schedule: Q01DX009 (ip), vehicle: Klucel (hydroxypropylcellulose) (HPC) 91 % of control and 95 % of control | dose: 75.0 mg/kg/injection, schedule: Q01DX009 (ip), vehicle: Klucel (hydroxypropylcellulose) (HPC) 91 % of control and 104 % of control | dose: 150.0 mg/kg/injection, schedule: Q01DX009 (ip), vehicle: Klucel (hydroxypropylcellulose) (HPC) 114 % of control

Cc1ccc2cc(O)ccc2c1
inactive: dose: 50.0 mg/kg/injection, schedule: Q01DX009 (ip), vehicle: saline with Tween-80 97 % of control | [5] 98 % of control

CC12CCC3C4CCC(=O)C(O)=C4CCC3C1CCC2OC(=O)CCC1CCCC1 (stereo unspecified)
inactive: dose: 100.0 mg/kg/injection, schedule: Q04DX003 (sc), vehicle: steriod suspending solution 101 % of control | dose: 200.0 mg/kg/injection, schedule: Q04DX003 (sc), vehicle: steriod suspending solution 104 % of control | dose: 400.0 mg/kg/injection, schedule: Q04DX003 (sc), vehicle: steriod suspending solution 104 % of control

O=C1NCCS1
inactive: [1] 98 % of control | [2] 104 % of control

COc1cc(C=O)ccc1OC1OC(C(COC(C)=O)OC(C)=O)C(OC(C)=O)C(OC(C)=O)C1OC(C)=O (stereo unspecified)
inactive: dose: 50.0 mg/kg/injection, schedule: Q01DX001 (ip), vehicle: saline with Tween-80 93 % of control | [4] 88 % of control | [6] 88 % of control

CC(C)(CCC(=O)O)c1ccc(O)cc1
inactive: [11] 101 % of control | [12] 103 % of control | [13] 103 % of control

[N-]=[N+]=CC(=O)NCC(=O)N/N=C/c1ccccn1
inactive: dose: 100.0 mg/kg/injection, schedule: Q01DX009 (ip), vehicle: saline sonified 104 % of control | [8] 97 % of control | dose: 200.0 mg/kg/injection, schedule: Q01DX009 (ip), vehicle: saline sonified 104 % of control | [9] 98 % of control | dose: 400.0 mg/kg/injection, schedule: Q01DX009 (ip), vehicle: saline sonified 97 % of control | [10] 94 % of control

CC(=O)c1ccc2c3c(ccc([N+](=O)[O-])c13)CC2
inactive: [5] 94 % of control | [8] 100 % of control and 98 % of control | [9] 100 % of control and 98 % of control | [10] 98 % of control and 101 % of control

CC(C)OC(=O)Nc1nc2ccccc2s1
inactive: dose: 100.0 mg/kg/injection, schedule: Q04DX002 (ip), vehicle: saline with Tween-80 92 % of control | dose: 200.0 mg/kg/injection, schedule: Q04DX002 (ip), vehicle: saline with Tween-80 95 % of control | dose: 400.0 mg/kg/injection, schedule: Q04DX002 (ip), vehicle: saline with Tween-80 92 % of control

OC(CCC(O)c1ccccc1)c1ccccc1 (stereo unspecified)
inactive: dose: 75.0 mg/kg/injection, schedule: Q01DX001 (ip), vehicle: saline sonified 98 % of control | dose: 150.0 mg/kg/injection, schedule: Q01DX001 (ip), vehicle: saline sonified 96 % of control | dose: 300.0 mg/kg/injection, schedule: Q01DX001 (ip), vehicle: saline sonified 94 % of control

CC(C)(C)NC(=O)CCC1C2C=CC(C2)C1C#N (stereo unspecified)
inactive: [8] 93 % of control | [9] 91 % of control | [10] 98 % of control

CCOC(=O)C1C(=O)N(c2ccccc2)C(=O)N1c1ccccc1 (stereo unspecified)
inactive: dose: 12.5 mg/kg/injection, schedule: Q01DX009 (ip), vehicle: other 89 % of control | dose: 25.0 mg/kg/injection, schedule: Q01DX009 (ip), vehicle: other 89 % of control | dose: 50.0 mg/kg/injection, schedule: Q01DX009 (ip), vehicle: other 103 % of control | dose: 100.0 mg/kg/injection, schedule: Q01DX009 (ip), vehicle: other 93 % of control | dose: 200.0 mg/kg/injection, schedule: Q01DX009 (ip), vehicle: other 98 % of control

CCOC(=O)C(N)CSCc1ccccc1 (stereo unspecified)
inactive: [11] 103 % of control | [12] 97 % of control | [13] 101 % of control

CC(Sc1ccccc1)C(=O)O (stereo unspecified)
inactive: dose: 100.0 mg/kg/injection, schedule: Q01DX001 (ip), vehicle: saline 98 % of control | dose: 200.0 mg/kg/injection, schedule: Q01DX001 (ip), vehicle: saline 102 % of control | [14] 98 % of control

O=C1CC2CC=CCC2C(=O)O1 (stereo unspecified)
inactive: [1] 101 % of control | [2] 98 % of control

c1cc(CSc2ncnc3nc[nH]c23)ccn1
inactive: dose: 178.0 mg/kg/injection, schedule: Q01DX001 (ip), vehicle: saline 118 % of control | dose: 267.0 mg/kg/injection, schedule: Q01DX001 (ip), vehicle: saline 115 % of control | [14] 119 % of control

Clc1ccc(C2c3ccccc3C[n+]3ccccc32)cc1 (stereo unspecified)
inactive: dose: 12.5 mg/kg/injection, schedule: Q04DX003 (ip), vehicle: Klucel (hydroxypropylcellulose) (HPC) 93 % of control | dose: 25.0 mg/kg/injection, schedule: Q04DX003 (ip), vehicle: Klucel (hydroxypropylcellulose) (HPC) 93 % of control

Cc1cn([C@@H]2C[C@H](CO)[C@@H](O)C2)c(=O)[nH]c1=O
inactive: dose: 133.0 mg/kg/injection, schedule: Q01DX009 (ip), vehicle: saline 118 % of control | dose: 200.0 mg/kg/injection, schedule: Q01DX009 (ip), vehicle: saline 121 % of control | dose: 450.0 mg/kg/injection, schedule: Q01DX009 (ip), vehicle: saline 106 % of control

O=C(C#Cc1ccccc1)c1ccccc1
inactive: dose: 3.12 mg/kg/injection, schedule: Q01DX009 (ip), vehicle: Klucel (hydroxypropylcellulose) (HPC) 86 % of control and 98 % of control | dose: 6.25 mg/kg/injection, schedule: Q01DX009 (ip), vehicle: Klucel (hydroxypropylcellulose) (HPC) 92 % of control and 97 % of control | dose: 12.5 mg/kg/injection, schedule: Q01DX009 (ip), vehicle: Klucel (hydroxypropylcellulose) (HPC) 92 % of control and 104 % of control | dose: 25.0 mg/kg/injection, schedule: Q01DX009 (ip), vehicle: Klucel (hydroxypropylcellulose) (HPC) 86 % of control and 107 % of control | dose: 50.0 mg/kg/injection, schedule: Q01DX009 (ip), vehicle: Klucel (hydroxypropylcellulose) (HPC) 89 % of control
